In data set [1] the test system is U2OS. Briefly: MTS antiproliferative assay U2OS. It counts as cell-based. The settings on record: Homo sapiens, 72 h of incubation. (Formazan colour is commonly taken as a measure of viable cells.)
The test system of data set [2] is BJ. The data set can be described thus: MTS assay on non-malignant BJ. The data set is classed as cell-based. The settings on record: noncancerous human cell line.
The subject of data set [3] is BMDM macrophages. Briefly: MTT cytotoxicity on BMDM macrophages. The settings on record: Mus musculus, 72 h. The data set is classed as cell-based. From the text: T. cruzi epimastigotes MHOM/VE/92/YBM venezuelan strain were used to test the anti T. cruzi in vitro studies. The strain was maintained in a modified LIT medium with 10% fetal bovine serum (FBS). Mouse bone marrow was used to obtain BMDM macrophages. Mouse fibroblast-conditioned medium L-929 was used for the differentiation and maintenance of BMDM macrophages. We evaluated through a colorimetric method the effect of compounds 8–23 on the promastigotes of L. brasiliensis. Briefly, 96-well plates were used, where 2 × 10^6 parasites/mL were seeded. A concentration of 50 μM was used for each compound and an incubation time of 96 h at 29 °C. 3-(4,5-dimethylthiazol-2-yl)-2,5-diphenyl tetrazolium bromide (MTT) 1 μg/mL was added and incubated in darkness for 4 h, acidic isopropanol (4N) was added and the plate was read at 570 nm in a spectrophotometer Synergy HT (Biotek). Miltefosine was used as a reference drug. The EC50 calculation of the selected compound was performed using growth curves. Direct counting was used to monitor the proliferation of parasites, three independent experiments were performed for each concentration of the compounds evaluated. The in vitro evaluations of compounds toxicity by MTT in VERO and BMDM cells follow a methodology described above with some modifications. The selectivity index was calculated with SI = CC50/EC50, where CC50 was the maximum concentration range of compounds 10, 21–23 used to evaluate cytotoxicity in VERO and BMDM cells. The trypanocidal activity of compounds 8–23 was evaluated on the viability of T. cruzi epimastigotes through a colorimetric method adapted with minor modifications. 2 × 10^6 parasites/mL were seeded in a 96-well plate, adding 50 μM of each derivative dissolved in DMSO (final concentration remained below 1%). The plate was incubated for 96 h at 29 °C. Then, 1 μg/mL of 3-(4,5-dimethylthiazol-2-yl)-2,5-diphenyl tetrazolium bromide (MTT) was added and incubated in darkness for 4 h. After this time, acidic isopropanol (4N) was added and the plate was read at 570 nm in a spectrophotometer Synergy HT (Biotek). Benznidazole was used as a reference drug. The in vitro evaluations of compounds toxicity by MTT in VERO and BMDM cells follow a methodology described above with some modifications. Cells were counted in suspension and seeded at 20 × 10^3 cells/well. The test was carried out in triplicate on 96-well microplates in different concentrations: 50 μM, 100 μM, 200 μM and 300 μM, untreated cells and reference drug (benznidazole) controls.

Data set [4] concerns epimastigotes of Trypanosoma cruzi strain MHOM/VE/92/YBM. The data set can be described thus: MTT viability of T. cruzi epimastigotes. It counts as cell-based.
For data set [5], the system named is promastigotes of Leishmania (V.) braziliensis strain MHOM/CO/87/UA301. The data set can be described thus: MTT viability of L. braziliensis promastigotes. The data set is classed as cell-based.
In data set [6] the test system is K562-TAX. Briefly: MTS antiproliferative assay K562-TAX. The settings on record: 72 h of incubation, paclitaxel-resistant. It counts as cell-based, human.
Data set [7] relates to K562. Briefly: MTS antiproliferative assay K562. It counts as cell-based, human. The settings on record: for IC50: 72 h of incubation.
Data set [8] concerns K562 cell line. Briefly: Annexin V-FITC/PI flow cytometry apoptosis assay K562. The settings on record: 24 h. It counts as cell-based, human. The procedure:
Cell death was assessed after 24 h incubation with compounds 18 and 22. Apoptosis was analyzed by flow cytometry using annexin V-FITC and propidium iodide (PI). Early apoptosis was defined by annexin V-FITC expression and, necrosis by PI expression, late apoptosis by coexpression of annexin V/PI. Doxorubicin and quercetin were used as positive controls. The results of a typical flow cytometry analysis of both compounds are illustrated in Figure 2 and Figure 3. An increase in early apoptosis and late apoptosis was observed; necrosis was less predominant. The results are summarized in Tables S1 and S2 (Supplementary Materials). The expression of annexin V was different depending on the compound used. K562, A549 cell lines were treated as described by the manufacturer (Santa Cruz Biotechnology), washed, and resuspended in annexin V binding buffer (0.01 M HEPES, 0.14 M NaCl, and 2.5 mM CaCl2) with the subsequent incubation of annexinV-FITC and then PI. An Epics XL cytometer (Beckman Coulter, Indianapolis, IN, USA) was used for the analysis. Untreated cells were the negative controls, and doxorubicin (Dox) (1 μM), and quercetin (QC) (50 μM) were the positive controls. Early apoptosis refers to annexin V expression, late apoptosis, the coexpression of annexin V and PI, and necrosis the sole expression of PI. […] The experiments were performed as described before. To avoid the unwanted effects of DMSO, the concentrations of the compounds were never higher than 100 μM.

Data set [9] has as its system HCT116p53−/−. Briefly: MTS antiproliferative assay HCT116p53-/-. The data set is classed as cell-based. The settings on record: Homo sapiens; 72 h of incubation.
Data set [10] relates to MRC-5. Briefly: MTS assay on non-malignant MRC-5. It counts as cell-based. The settings on record: MRC5; noncancerous human cell line.

Each structure is given as a SMILES string.

As usually defined, the IC50 is the concentration at which inhibition is half-maximal. A lower IC50 goes with greater potency in that assay. The EC50 is the concentration at which the effect is half-maximal. `COc1ccc2c(c1)CC/C(=C\c1cccnc1Oc1ccc(Cl)cc1)C2=O` [Compound 22, (E)-2-{[2-(4-Chlorophenoxy)pyridin-3-yl]methylene}-3,4-dihydro-6-methoxynaphthalen-1(2H)-one]: the IC50 in [1] was 8.1 ± 1.71 µM; in data set [2] it was above 50 µM; in [6], 21.4 ± 4.08 µM; in data set [6] (Homo sapiens, K562-Tax, 72 h), above 21.4 µM; in [7] it was 3.91 ± 0.14 µM; in [7] (Homo sapiens, K562, 72 h) it was 3.91 to 4.33 µM. The IC50 in data set [9] was 33.9 ± 5.63 µM; in data set [10], above 50 µM. Also, the EC50 is 468 µM in data set [3]; 5.03 ± 0.49 µM in data set [4] (Trypanosoma cruzi, 72 h, epimastigotes); 12.4 ± 1.15 µM in [5] (72 h, promastigotes). Further, the “SIV/Tc selectivity index on T. cruzi/VERO” value in [4] (SI = CC50/EC50) was determined as 20. Further, the “selectivity index T. cruzi vs BMDM (CC50/EC50)” value in [4] (SI = CC50/EC50) came to 93. Moreover, in data set [5] (SI = CC50/EC50), the “SIB/Lb selectivity index on L. braziliensis/BMDM” value came to 38. In [7] (ratio of IC50 values), the “times higher cytotoxicity against K562 than K562-TAX” value is on record as 5.5 times. The “AV+/IP+ (late apoptosis)” value is recorded as 1.85% in data set [8] (K562, 5 µM) and 77.70% in [8] (K562, 10 µM). Further, the “AV+/IP- (early apoptosis)” value in data set [8] (K562, 5 µM) is reported as 20.90%; in [8] (K562, 10 µM), 21.80%. The “AV-/IP+ (necrosis)” value is 0.44% in data set [8] (K562, 5 µM) and 0.29% in data set [8] (K562, 10 µM). Further, the “annexin V-FITC expression” value in data set [8] (K562, 10 µM) is recorded as “higher than 50%”.

For the origin of these results see paper PMC9457600, “Synthesis, Leishmanicidal, Trypanocidal, Antiproliferative Assay and Apoptotic Induction of (2-Phenoxypyridin-3-yl)naphthalene-1(2H)-one Derivatives” (Molecules, 2022).
